Experimental data from ChEMBL document CHEMBL6153153, “Use of Aldehyde-Alkyne-Amine Couplings to Generate Medicinal Chemistry-Relevant Linkers” (ACS Med Chem Lett, 2025).
Activity calls are given as the source filed them. The rule behind the calls is not given here.

What was measured:
[1] = Solubility of compound; format: physicochemical
[2] = Solubility of the compound in saline; format: physicochemical; settings: buffer
[3] = Solubility of compound in 5 percent PBS buffer; format: physicochemical
[4] = test system: HEK293; experiment: PROTAC activity at E3 ligase/short BRD4 (unknown origin) expressed in HEK293 cells assessed as induction of BRD4 degradation at 300 to 1000 nM incubated for 18 hrs by Western blot analysis; format: cell-based; settings: Homo sapiens, dose 300-1000 nM
[5] = test system: HEK293; experiment: PROTAC activity at E3 ligase/long BRD4 (unknown origin) expressed in HEK293 cells assessed as induction of BRD4 degradation at 300 to 1000 nM incubated for 18 hrs in presence of MLN4924 by Western blot analysis; format: cell-based; settings: Homo sapiens, dose 300-1000 nM
[6] = test system: HEK293; experiment: PROTAC activity at E3 ligase/short BRD4 (unknown origin) expressed in HEK293 cells assessed as induction of BRD4 degradation at 300 to 1000 nM incubated for 18 hrs in presence of MLN4924 by Western blot analysis; format: cell-based; settings: Homo sapiens, dose 300-1000 nM
[7] = test system: HEK293; experiment: PROTAC activity at E3 ligase/long BRD4 (unknown origin) expressed in HEK293 cells assessed as induction of BRD4 degradation at 300 to 1000 nM incubated for 18 hrs in presence of MG132 by Western blot analysis; format: cell-based; settings: Homo sapiens, dose 300-1000 nM
[8] = test system: HEK293; experiment: PROTAC activity at E3 ligase/short BRD4 (unknown origin) expressed in HEK293 cells assessed as induction of BRD4 degradation at 300 to 1000 nM incubated for 18 hrs in presence of MG132 by Western blot analysis; format: cell-based; settings: Homo sapiens, dose 300-1000 nM
[9] = test system: HEK293; experiment: PROTAC activity at E3 ligase/long BRD4 (unknown origin) expressed in HEK293 cells assessed as induction of BRD4 degradation at 300 to 1000 nM incubated for 18 hrs in presence of thalidomide by Western blot analysis; format: cell-based; settings: Homo sapiens, dose 300-1000 nM
[10] = test system: HEK293; experiment: PROTAC activity at E3 ligase/short BRD4 (unknown origin) expressed in HEK293 cells assessed as induction of BRD4 degradation at 300 to 1000 nM incubated for 18 hrs in presence of thalidomide by Western blot analysis; format: cell-based; settings: Homo sapiens, dose 300-1000 nM
[11] = test system: HEK293; experiment: PROTAC activity at E3 ligase/long BRD4 (unknown origin) expressed in HEK293 cells assessed as induction of BRD4 degradation at 300 to 1000 nM incubated for 18 hrs by Western blot analysis; format: cell-based; settings: Homo sapiens, dose 300-1000 nM

solubility [1] | solubility [2] | solubility [3] | Structure (SMILES) | Activity [4] | Activity [5] | Activity [6] | Activity [7] | Activity [8] | Activity [9] | Activity [10] | Activity [11]
Insoluble |  |  | Cc1ncsc1-c1ccc(CNC(=O)[C@@H]2C[C@@H](O)CN2C(=O)[C@@H](NC(=O)CCCCC(=O)NC2CCN(C(C#CCCSc3ccc(C(=O)NCCNC(=O)C[C@@H]4N=C(c5ccc(Cl)cc5)c5c(sc(C)c5C)-n5c(C)nnc54)cc3)C3CCOCC3)CC2)C(C)(C)C)cc1 (some centres undefined) |  |  |  |  |  |  |  | 
Insoluble | Insoluble | Insoluble | Cc1sc2c(c1C)C(c1ccc(Cl)cc1)=N[C@@H](CC(=O)NCC#CC(C1CCN(C(=O)COc3cccc4c3C(=O)N(C3CCC(=O)NC3=O)C4=O)CC1)N1CCN(C(=O)COc3cccc4c3C(=O)N(C3CCC(=O)NC3=O)C4=O)CC1)c1nnc(C)n1-2 (some centres undefined) |  |  |  |  |  |  |  | 
 | Insoluble | Insoluble | Cc1sc2c(c1C)C(c1ccc(Cl)cc1)=N[C@@H](CC(=O)NCCNC(=O)c1ccc(SCCC#CC(C3CCOCC3)N3CCC(NC(=O)COc4cccc5c4C(=O)N(C4CCC(=O)NC4=O)C5=O)CC3)cc1)c1nnc(C)n1-2 (some centres undefined) | Active | inactive | inactive | inactive | inactive | inactive | inactive | Active
